Measured values reported in patent publication EP3335720A1, “C-DI-GMP BINDING PEPTIDES” (Universität Basel, priority 2016, dated 2018).

How the values were obtained:
c-di-GMP = assay: Binding affinity of peptides to c-di-GMP by isothermal titration calorimetry (ITC); settings: for Dissociation constant: pH 8.0
Protocol: Binding affinities of peptides to c-di-GMP were measured using isothermal titration calorimetry (ITC) on a VP-ITC MicroCalorimeter (MicroCal, Northampton, MA, USA). Peptides, c-di-GMP and buffer (50 mM Tris-HCl, pH 8.0, 100 mM NaCl) were degassed for 15 min prior to filling into sample cell and syringe. All experiments were carried out at a temperature of 15°C. The data were evaluated using ITC Data Analysis in ORIGIN provided by the manufacturer.

P. aeruginosa (PAO1) = assay: P. aeruginosa growth in presence of peptides (growth curves); assay type: cell-based; settings: 64 mg/L peptides, 37°C, MHB; Figure 10
Protocol: Growth curves were obtained by growing P. aeruginosa (PAO1) in 96-well plates (Falcon #353072) in presence of 64 mg/L peptides at 37°C with agitation in Mueller-Hinton II Broth (MHB) (BD #212322) using an Epoch 2 microplate reader (BioTek).

[1] = system: P. aeruginosa PAO1 biofilms; assay type: cell-based
Protocol: The parameter "MBIC50", as used herein, is defined as the peptide concentration leading to 50% biofilm reduction in a standard biofilm assay. Preferably, the medium used for the assay is Mueller-Hinton broth (MHB), since most bacteria can be grown in this medium, and it allows a reliable comparison of MBIC values. MBIC50 values in accordance with the invention are obtained by growing P. aeruginosa at 37°C in presence of different concentrations of peptides, without agitation, for 24 h, followed by staining the adherent biofilm, dissolving the biofilm and measuring the OD600.
The standard biofilm assay (O'Toole G.A., Pratt L.A., Watnick P.I., Newman D.K., Weaver V.B., and Kolter R. 1999. Genetic approaches to study of biofilms. Methods Enzymol. 310: 91-109) was followed with minor modification, i.e. Mueller-Hinton II broth (MHB) (Becton Dickinson #212322) was used instead of lysogenic broth (LB) or minimal medium. MHB is preferred by The European Committee on Antimicrobial Susceptibility Testing (EUCAST) as the medium for MIC determination because most bacteria can be grown in this medium, which allows a more reliable MIC values comparisons. The MBIC50 was defined as the peptide concentration leading to 50% biofilm reduction (de la Fuente-Nunez C., Korolik V., Bains M., Nguyen U., Breidenstein E. B. M., Horsman S., Lewenza S., Burrows L., Hancock, R. E. W. (2012) Inhibition of bacterial biofilm formation and swarming motility by a small synthetic cationic peptide. 56: 2696-2704). MBIC50 values were obtained by growing P. aeruginosa (PAO1) biofilms in 96-well plates (Falcon #353072) in presence of peptides at 37°C without agitation in MHB. After 24 hours, bacterial growth was evaluated by measuring the OD600 in a microtiter plate reader (EL800, BioTek). Afterwards, the plates were rinsed three times with demineralized water to remove non-attached bacteria. The adherent biofilms were stained with 0.1% Crystal Violet and subsequently dissolved in 20% acetic acid. Dissolved biofilms were quantified by measuring the OD600 in a microtiter plate reader.

in vitro [2] = assay type: in vitro ADME, P. aeruginosa PAO1; settings: cells or culture medium
Protocol: (§1) P. aeruginosa PAO1 lysate, which was used to test peptide stability, was prepared by the following procedure. 500 ml of cells grown overnight at 37°C were harvested by centrifugation at 5000 rpm, 10 min at 4°C. Pellets were resuspended in 60 ml PBS (Gibco) and centrifuged at 5000 rpm, 10 min at 4°C. Pellets were resuspended again in 20 ml PBS and centrifuged at 5000 rpm, 10 min at 4°C. Cells were disrupted using high-pressure cell disrupter (Stansted Fluid Power). Cell lysate was separated from cell debris by centrifugation at 14,000 rpm for 20 min at 4°C. Lysate was diluted 10 fold to yield a protein content of about 1 mg/ml. The lysate was used for all experiments described below.
The stability of peptides was tested against P. aeruginosa PAO1 cell lysate. […] Samples were analyzed on 10-20% Mini-PROTEAN tris-tricine gels (BIO-RAD #4563115) according to manufacturer's recommended protocol. Band intensities were quantified using the program ImageJ (Schneider, C. A., Rasband, W. S. and Eliceiri, K. W. 2012. NIH Image to ImageJ: 25 years of image analysis. Nature methods. 9: 671-675).
The protocol mentioned above was also used to compare stability of peptides in the presence of c-di-GMP. […] 14 µl samples were removed at 2, 4, 6 and 8 hours after incubation at 37°C and analyzed on tris-tricine gels as described above.

in vitro [3] = assay type: in vitro ADME, P. aeruginosa PAO1
Protocol: as §1
The stability of peptides was tested against P. aeruginosa PAO1 cell lysate. About 1 to 3 µg of peptides were incubated with 5 µl P. aeruginosa PAO1 cell lysate or PBS (untreated controls) at 37°C. After 2 hours, 6 µl of 2x SDS sample buffer was added to the samples and heated to 95°C for 5 min. Samples were analyzed on 10-20% Mini-PROTEAN tris-tricine gels (BIO-RAD #4563115) according to manufacturer's recommended protocol. Band intensities were quantified using the program ImageJ (Schneider, C. A., Rasband, W. S. and Eliceiri, K. W. 2012. NIH Image to ImageJ: 25 years of image analysis. Nature methods. 9: 671-675).

epithelial HeLa cells = assay: Cytotoxicity assays: resazurin reduction assay and LDH release assay; assay type: cell-based, human; settings: 24 hours, Figures 11 and 12
Protocol: The cytotoxicity of the peptides was determined with a Resazurin cell viability assay (Sigma #R7017). In a 96-well plate (Corning #3904), monolayers of epithelial HeLa ATCC CCL-2 cells were grown in 100 µl growth medium (DMEM (Sigma #D5796) containing 10% FCS). Afterwards, the medium was removed and either replaced by DMEM/10% FCS containing 2-fold serial diluted peptides with a highest concentration of 256 mg/L. After 24 hours, the medium was removed and replaced by 100 µl fresh growth medium. 1% Triton X-100 (Sigma) was used as positive lysis control. 20 µl of resazurin solution (0.1 mg/ml) was added. After 2 hours, the fluorescence signal was recorded using a microplate reader (Synergy H4 BioTek) with an excitation wavelength of 560 nm and emission wavelength 590 nm.
Cells were prepared and treated with peptides as described for the resazurin reduction assay. 24 hours after peptide treatment, control wells were treated with 1% Triton X-100 (Sigma) as lysis control. LDH release was measured using the LDH Cytotoxicity Detection Kit (Clontech). Absorbance was measured at 490 nm using a microplate reader (Synergy H4 BioTek). The percentage of cell death was calculated as follows: (LDH peptide treated - LDH untreated)/(LDH total lysis - LDH untreated)* 100.

[4] = Table 3, peptides with amino acid substitution, 15°C

Row | Substance | Dissociation constant (c-di-GMP; [4]) | binding affinity to c-di-GMP, in words (c-di-GMP; compared to the core sequence / peptide of SEQ ID NO: 12) | effect on bacterial growth (P. aeruginosa (PAO1)) | MBIC50 ([1]; PAO1, 24 h) [mg/L] | remaining at 2 h (in vitro [2]) [%] | Remaining peptide after 2 hours (in vitro [3]) [%] | Kd (c-di-GMP; Table 3, peptides with amino acid substitution, 15°C, pH 8.0, read-out: Dissociation constant) [nM] | concentration up to which no toxic effect was shown (epithelial HeLa cells) [µg/mL] | MBIC50 compared to the MBIC50 of the peptide of SEQ ID NO: 28 ([1]; lower)
1 | Ac-DRRRFNSADYKGPRRAKAD-NH2 [SEQ ID NO: 28, AC-DRRRFNSADYKGPRRAKAD-NH2] | no binding detected | significantly reduced binding affinities | do not show an effect on bacterial growth |  |  |  |  |  | 
2 | Ac-DRRRFNSADYKGPRRAKAD-NH2 [compound 28] | no binding |  |  | 1 to 2 | 23 | 11 |  |  | 
3 | Ac-DRRRFNSADYKGPRRRKAD-NH2 [SEQ ID NO: 12, AC-DRRRFNSADYKGPRRRKAD-NH2] |  |  | do not show an effect on bacterial growth |  | 32 | 11 | 170 | ≤ 64 | about 4 fold
